We go through 19 compounds from PubChem BioAssay AID330 (DTP/NCI, 2004).

The test system of this assay is P388 leukemia ip, CD2F1 mice, survival T/C. Kind of assay: NCI In Vivo Anticancer Drug Screen. Data for tumor model P388 Leukemia (intraperitoneal) in CD2F1 (CDF1) mice. Particulars: endpoint: median survival time, higher = longer survival. The method, boiled down:
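Mice carrying the transplanted tumor received test compound or vehicle. Survival was recorded in each group, and the value is the treated-group measurement divided by that of the vehicle-treated control group.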

Setting [1] is: dose: 50.0 mg/kg/injection, schedule: Q01DX005 (ip), vehicle: Klucel (hydroxypropylcellulose) (HPC).
Setting [2] is: dose: 100.0 mg/kg/injection, schedule: Q01DX005 (ip), vehicle: Klucel (hydroxypropylcellulose) (HPC).
[3] abbreviates: dose: 200.0 mg/kg/injection, schedule: Q01DX005 (ip), vehicle: Klucel (hydroxypropylcellulose) (HPC).
The mark [4] stands for this setting: dose: 12.5 mg/kg/injection, schedule: Q01DX005 (ip), vehicle: saline with Tween-80.
[5] abbreviates: dose: 25.0 mg/kg/injection, schedule: Q01DX005 (ip), vehicle: saline with Tween-80.
Where [6] appears, read: dose: 50.0 mg/kg/injection, schedule: Q01DX005 (ip), vehicle: saline with Tween-80.
The mark [7] stands for this setting: dose: 60.0 mg/kg/injection, schedule: Q01DX005 (ip), vehicle: saline with Tween-80.
[8] abbreviates: dose: 120.0 mg/kg/injection, schedule: Q01DX005 (ip), vehicle: saline with Tween-80.
Where [9] appears, read: dose: 240.0 mg/kg/injection, schedule: Q01DX005 (ip), vehicle: saline with Tween-80.
Setting [10] is: dose: 100.0 mg/kg/injection, schedule: Q01DX005 (ip), vehicle: saline with Tween-80.

“And” between values parts separate entries of the source, which are not always exact repeats. Identical values can stand only once. Toxic doses and inconclusive results are not listed.

As for `CC(=O)CC(c1ccccc1)c1c(O)c2ccccc2oc1=O` (stereo not given), the T/C is 93 % of control and 96 % of control (dose: 0.02 mg/kg/injection, schedule: Q01DX009 (ip), vehicle: Klucel (hydroxypropylcellulose) (HPC)); 100 % of control (dose: 0.05 mg/kg/injection, schedule: Q01DX009 (ip), vehicle: Klucel (hydroxypropylcellulose) (HPC)); 99 % of control (dose: 0.05 mg/kg/injection, schedule: Q01DX009 (ip), vehicle: saline); 99 % of control (dose: 0.06 mg/kg/injection, schedule: Q01DX009 (ip), vehicle: other); 96 % of control and 97 % of control (dose: 0.1 mg/kg/injection, schedule: Q01DX009 (ip), vehicle: Klucel (hydroxypropylcellulose) (HPC)); 96 % of control (dose: 0.1 mg/kg/injection, schedule: Q01DX009 (ip), vehicle: saline). The T/C was 92 % of control (dose: 0.13 mg/kg/injection, schedule: Q01DX009 (ip), vehicle: other); 95 % of control and 96 % of control (dose: 0.2 mg/kg/injection, schedule: Q01DX009 (ip), vehicle: Klucel (hydroxypropylcellulose) (HPC)); 109 % of control and 92 % of control (dose: 0.2 mg/kg/injection, schedule: Q01DX009 (ip), vehicle: saline); 95 % of control (dose: 0.25 mg/kg/injection, schedule: Q01DX009 (ip), vehicle: other); 91 % of control and 95 % of control (dose: 0.4 mg/kg/injection, schedule: Q01DX009 (ip), vehicle: Klucel (hydroxypropylcellulose) (HPC)); 98 % of control and 90 % of control (dose: 0.4 mg/kg/injection, schedule: Q01DX009 (ip), vehicle: saline). For the same compound, the T/C by setting is: (dose: 0.5 mg/kg/injection, schedule: Q01DX009 (ip), vehicle: saline with Tween-80) 97 % of control; (dose: 0.8 mg/kg/injection, schedule: Q01DX009 (ip), vehicle: saline) 101 % of control and 91 % of control; (dose: 1.0 mg/kg/injection, schedule: Q01DX001 (ip), vehicle: saline + alcohol) 101 % of control; (dose: 1.0 mg/kg/injection, schedule: Q01DX009 (ip), vehicle: saline with Tween-80) 93 % of control; (dose: 2.0 mg/kg/injection, schedule: Q01DX001 (ip), vehicle: saline + alcohol) 101 % of control; (dose: 4.0 mg/kg/injection, schedule: Q01DX001 (ip), vehicle: saline + alcohol) 95 % of control. Also, the T/C is 96 % of control (dose: 4.0 mg/kg/injection, schedule: Q04HX002 (ip), vehicle: saline with Tween-80); 99 % of control and 86 % of control (dose: 8.0 mg/kg/injection, schedule: Q04HX002 (ip), vehicle: saline with Tween-80); 106 % of control and 96 % of control (dose: 16.0 mg/kg/injection, schedule: Q04HX002 (ip), vehicle: saline with Tween-80).

For `CCC(CN1N=C(c2ccc(Cl)cc2)CCC1=O)C(=O)CCC(=O)O` (stereo not given), the T/C runs as follows: under setting [1], 104 % of control; under setting [2], 105 % of control; under setting [3], 113 % of control.

For `CCCCCCC[CH2][Sn]([CH2]C)([CH2]C)[O]C(C)=O`, under “dose: 0.25 mg/kg/injection, schedule: Q01DX009 (ip), vehicle: saline with Tween-80”, the T/C is 122 % of control.

In the case of `CCOC(=O)N1C=CC2(C=C1)CCCCCC2`, the T/C is, setting by setting: (dose: 37.5 mg/kg/injection, schedule: Q04DX003 (ip), vehicle: Klucel (hydroxypropylcellulose) (HPC)) 101 % of control; (dose: 75.0 mg/kg/injection, schedule: Q04DX003 (ip), vehicle: Klucel (hydroxypropylcellulose) (HPC)) 98 % of control.

Regarding `Cc1cc(C(=O)Nc2ccc(NC3=NCCN3)cc2)cc(C(=O)Nc2ccc(NC3=NCCN3)cc2)c1`, the T/C is, setting by setting: (dose: 3.12 mg/kg/injection, schedule: Q01DX005 (ip), vehicle: saline with Tween-80) 100 % of control; (dose: 6.25 mg/kg/injection, schedule: Q01DX005 (ip), vehicle: saline with Tween-80) 107 % of control; under setting [4], 106 % of control.

As for `NCCCCCCN1CCN(c2cccc(Cl)c2)CC1`, the T/C is 103 % of control and 97 % of control (dose: 50.0 mg/kg/injection, schedule: Q01DX009 (ip), vehicle: saline); 114 % of control and 98 % of control (dose: 100.0 mg/kg/injection, schedule: Q01DX009 (ip), vehicle: saline); 123 % of control (dose: 200.0 mg/kg/injection, schedule: Q01DX009 (ip), vehicle: saline).

On to `COC(=O)c1nc(=S)[nH]c(C(=O)OC)c1C(=O)c1cccnc1`, for which the T/C was 108 % of control (dose: 60.0 mg/kg/injection, schedule: Q01DX005 (ip), vehicle: saline) and 110 % of control (dose: 120.0 mg/kg/injection, schedule: Q01DX005 (ip), vehicle: saline).

As for `CCOC(=O)Nc1cc(NC(C)/C(=N/O)c2ccccc2)c([N+](=O)[O-])c(N)n1` (stereo not given), the T/C by setting is: (dose: 60.0 mg/kg/injection, schedule: Q01DX005 (ip), vehicle: Klucel (hydroxypropylcellulose) (HPC)) 157 % of control and 176 % of control; (dose: 120.0 mg/kg/injection, schedule: Q01DX005 (ip), vehicle: Klucel (hydroxypropylcellulose) (HPC)) 166 % of control and 186 % of control; (dose: 240.0 mg/kg/injection, schedule: Q01DX005 (ip), vehicle: Klucel (hydroxypropylcellulose) (HPC)) 174 % of control and 180 % of control.

For `C/C(=N\NC(=S)N1CCCCC1C)c1nccs1` (stereo not given), the T/C is, setting by setting: under setting [4], 100 % of control and 108 % of control; under setting [5], 104 % of control and 111 % of control; under setting [6], 112 % of control and 118 % of control.

`COc1ccc(C2=C(Cl)C(=O)N(c3ccccc3)C(=O)C2(Cl)Cl)cc1`: the T/C by setting is: (dose: 100.0 mg/kg/injection, schedule: Q04DX002 (ip), vehicle: Klucel (hydroxypropylcellulose) (HPC)) 103 % of control; (dose: 200.0 mg/kg/injection, schedule: Q04DX002 (ip), vehicle: Klucel (hydroxypropylcellulose) (HPC)) 107 % of control; (dose: 400.0 mg/kg/injection, schedule: Q04DX002 (ip), vehicle: Klucel (hydroxypropylcellulose) (HPC)) 107 % of control.

For `Cc1ccc(NC(=O)Oc2cc(C)c(Cl)c(C)c2Cl)c([N+](=O)[O-])c1`, the T/C is 114 % of control (dose: 50.0 mg/kg/injection, schedule: Q01DX009 (ip), vehicle: saline with Tween-80) and 107 % of control (dose: 100.0 mg/kg/injection, schedule: Q01DX009 (ip), vehicle: saline with Tween-80).

With `C=CCC(C)(C#N)C1C=CCC1` (stereo not given), the T/C (dose: 100.0 mg/kg/injection, schedule: Q01DX009 (ip), vehicle: saline sonified) was 100 % of control; the T/C (dose: 200.0 mg/kg/injection, schedule: Q01DX009 (ip), vehicle: saline sonified) was 100 % of control; the T/C (dose: 400.0 mg/kg/injection, schedule: Q01DX009 (ip), vehicle: saline sonified) is 122 % of control.

On to `CN(C)c1nc(N(C)C)oc(=[N+](C)C)n1`, for which the T/C was 106 % of control (dose: 6.25 mg/kg/injection, schedule: Q01DX005 (ip), vehicle: saline); 103 % of control (dose: 12.5 mg/kg/injection, schedule: Q01DX005 (ip), vehicle: saline); 113 % of control (dose: 25.0 mg/kg/injection, schedule: Q01DX005 (ip), vehicle: saline).

Regarding `CCOC(=O)c1c[nH]n(Cc2ccccc2)c1=O`, the T/C is, setting by setting: under setting [7], 100 % of control; under setting [8], 100 % of control; under setting [9], 95 % of control.

As to `Cc1cc(N)cc(N)c1O`, the T/C runs as follows: (dose: 1.56 mg/kg/injection, schedule: Q01DX009 (ip), vehicle: saline) 97 % of control; (dose: 3.12 mg/kg/injection, schedule: Q01DX009 (ip), vehicle: saline) 95 % of control; (dose: 6.25 mg/kg/injection, schedule: Q01DX009 (ip), vehicle: saline) 97 % of control.

Take `Cc1ccc(C)c(NC(=O)/C=N/O)c1`: the T/C under setting [6] is 98 % of control; the T/C under setting [10] is 110 % of control; the T/C (dose: 200.0 mg/kg/injection, schedule: Q01DX005 (ip), vehicle: saline with Tween-80) was 105 % of control.

Turning to `[O-][n+]1c(C2=C(N3CCCC3)c3ccccc3C2)c(Cl)c(Cl)c(Cl)c1C1=C(N2CCCC2)c2ccccc2C1`, the T/C was 102 % of control under setting [5], 103 % of control under setting [6] and 93 % of control under setting [10].

As for `CN(C)c1ccc2nc3c(cc(Nc4cccc5cccc(Nc6cc7ccccc7c7nc8ccc(N(C)C)cc8[o+]c67)c45)c4ccccc43)[o+]c2c1`, the T/C by setting is: under setting [7], 90 % of control; under setting [8], 100 % of control; under setting [9], 91 % of control.

As to `CC1(C)OC2(C)CCC1C1C2N1C(=O)c1ccc([N+](=O)[O-])cc1` (stereo not given), the T/C is, setting by setting: under setting [1], 96 % of control; under setting [2], 102 % of control; under setting [3], 110 % of control.
